Values quoted from earlier work as cited in patent publication US5929038A, “Pharmaceutical preparations which inhibit hepatitis B virus (HBV) replication” (Choongwae Pharmaceutical Co., Ltd., priority 1992, dated 1999).

Assays:
[1] = tested on: beagle dogs intoxicated by toxic mushroom extracts; conditions: cited from earlier work
[2] = tested on: toxic Amanita mushrooms' poisoning; conditions: in vivo; cited from earlier work

**Q.** With `OCC1=CC(O)C2C=COC(O[C@@H]3O[C@H](CO)[C@@H](O)[C@H](O)[C@H]3O)C12` (stereo partly drawn) [Aucubin, 1,4,5, 7α-tetrahydro-5-hydroxy-17-(hydroxymethyl)cyclopenta[c]pyran-1-yl-β-D-glucopyranose] as the molecule, how does the antidotal activity [1] read?
**A.** potent antidotal activity

**Q.** What about the Detoxification activity [2] of the same molecule?
**A.** detoxifies toxic Amanita mushrooms' poisoning
